Assay results from US11046681B2, “Substituted piperidines for the treatment of cancer” (LES LABORATOIRES SERVIER, priority 2016, dated 2021).

How the values were obtained:
[1] = biological target: His-His-USP7 (aa208-560, [C315A]) (Homo sapiens (Human), UniProt Q93009, C315A); assay: Evaluation of the inhibition of USP7 by Fluorescence Intensity (FLINT) readings; format: biochemical; settings: 0.25 nM USP7, 60 minutes at 30° C. preincubation, 500 nM Ubiquitin-Rhodamine-110 substrate, 50% reduction in kinetic rate
Method: USP7 activity was measured using Rhodamine-110 c-terminal labelled Ubiquitin as a substrate (Viva Biosciences). Incubation with USP7 results in the release of Rhodamine-110 leading to an increase in fluorescence which can be used in the continuous measurement of USP7 activity.
The USP7 reactions were performed in a 50 μL volume, in 384 well black solid low binding plates (Corning #3575). The reaction buffer consisted of 100 mM Bicine pH 8.0, 0.01% TritonX100, 1 mM TCEP, and 10% DMSO.
0.25 nM His-His-USP7 (aa208-560, [C315A]) was incubated with compound (final concentration 10% DMSO) for 60 minutes at 30° C. The reaction was then initiated by the addition of 500 nM Ubiquitin-Rhodamine-110 substrate and the plate read every 3 minutes for 21 minutes to measure the release of Rhodamine-110. Fluorescence Intensity (FLINT) readings were measured using a […] Neo plate reader (Ex.485 nm, Em.535 nm).
The inhibition of increasing doses of compound was expressed as a percentage reduction in kinetic rate compared to the kinetic rates established between ‘DMSO only’ and ‘total inhibition’ controls (no USP7). The inhibitory concentrations that gave a 50% reduction in kinetic rate (IC50) were determined, from 11-point dose response curves, in XL-Fit using a 4-Parameter Logistic Model (Sigmoidal Dose-Response Model).

[2] = tested on: MM1S multiple myeloma tumour cell line; assay: In vitro cytotoxicity, Microculture Tetrazolium Assay (MTT) on MM1S cells; format: cell-based; settings: Homo sapiens, MM1.S, exposed for 96 hours, cell viability by MTT
Method: The cytotoxicity studies were carried out on the MM1S multiple myeloma tumour cell line. The cells are distributed onto microplates and exposed to the test compounds for 96 hours. The cell viability is then quantified by a colorimetric assay, the Microculture Tetrazolium Assay (Cancer Res., 1987, 47, 939-942).

Chain of His-His-USP7 (aa208-560, [C315A]) (Q93009 208-560 C315A): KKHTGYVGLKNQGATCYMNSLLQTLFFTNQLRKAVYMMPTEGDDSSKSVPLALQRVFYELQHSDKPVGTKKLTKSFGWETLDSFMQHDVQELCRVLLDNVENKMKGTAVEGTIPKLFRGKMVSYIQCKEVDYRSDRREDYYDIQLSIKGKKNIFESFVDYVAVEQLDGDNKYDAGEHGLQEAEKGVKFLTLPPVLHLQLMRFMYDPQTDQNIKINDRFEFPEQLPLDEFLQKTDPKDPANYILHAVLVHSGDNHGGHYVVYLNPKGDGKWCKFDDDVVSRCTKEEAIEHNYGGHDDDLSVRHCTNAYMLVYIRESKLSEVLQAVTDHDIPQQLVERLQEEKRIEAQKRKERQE

| Compound | IC50 [1] | IC50 [2] |
| --- | --- | --- |
| COc1ccc(-n2ccc3c(=O)n(CC4(O)CCN(C(=O)[C@@H]5CCN(C(=O)OC(C)(C)C)C[C@H]5c5ccccc5)CC4)cnc32)cc1 [EXAMPLE 40, tert-butyl (3R,4R)-4-[4-hydroxy-4-[[7-(4-methoxyphenyl)-4-oxo-pyrrolo[2,3-d]pyrimidin-3-yl]methyl]piperidine-1-carbonyl]-3-phenyl-piperidine-1-carboxylate] | 49.9 nM | 31.5 nM |
| O=C([C@@H]1CCNC[C@H]1c1ccccc1)N1CCC(O)(Cn2cnc3c(ccn3-c3ccccc3)c2=O)CC1 [EXAMPLE 101, 3-[[4-hydroxy-1-[(3R,4R)-3-phenylpiperidine-4-carbonyl]-4-piperidyl]methyl]-7-phenyl-pyrrolo[2,3-d]pyrimidin-4-one] | 31.6 nM | 272 nM |
| COc1ccc(-n2ccc3c(=O)n(CC4(O)CCN(C(=O)[C@@H]5CCNC[C@H]5c5ccccc5)CC4)cnc32)cc1 [EXAMPLE 135, 3-[[4-hydroxy-1-[(3R,4R)-3-phenylpiperidine-4-carbonyl]-4-piperidyl]methyl]-7-(4-methoxyphenyl)pyrrolo[2,3-d]pyrimidin-4-one] | 28.7 nM | 135 nM |
| CN1CC[C@@H](C(=O)N2CCC(O)(Cn3cnc4c(ccn4-c4ccc(Cl)cc4)c3=O)CC2)[C@H](c2ccccc2)C1 [EXAMPLE 153, 7-(4-chlorophenyl)-3-[[4-hydroxy-1-[(3R,4R)-1-methyl-3-phenyl-piperidine-4-carbonyl]-4-piperidyl]methyl]pyrrolo[2,3-d]pyrimidin-4-one] | 48.6 nM | 74.7 nM |

Continued, in another order:

| IC50 [1] | Compound | IC50 [2] |
| --- | --- | --- |
| 19.6 nM | O=C([C@@H]1CCNC[C@H]1c1ccccc1)N1CCC(O)(Cn2cnc3c(cnn3-c3ccc4c(c3)OCCO4)c2=O)CC1 [EXAMPLE 165, 1-(2,3-dihydro-1,4-benzodioxin-6-yl)-5-[[4-hydroxy-1-[(3R,4R)-3-phenylpiperidine-4-carbonyl]-4-piperidyl]methyl]pyrazolo[3,4-d]pyrimidin-4-one] | 300 nM |
| 89 nM | CC(=O)N1CC[C@@H](C(=O)N2CCC(O)(Cn3cnc4c(ccn4-c4cccc(Cl)c4)c3=O)CC2)[C@H](c2ccccc2)C1 [EXAMPLE 180, 3-[[1-[(3R,4R)-1-acetyl-3-phenyl-piperidine-4-carbonyl]-4-hydroxy-4-piperidyl]methyl]-7-(3-chlorophenyl)pyrrolo[2,3-d]pyrimidin-4-one] |  |
| 74.2 nM | CC(=O)N1CC[C@@H](C(=O)N2CCC(O)(Cn3cnc4c(ccn4-c4ccc(Cl)cc4)c3=O)CC2)[C@H](c2ccccc2)C1 [EXAMPLE 181, 3-[[1-[(3R,4R)-1-acetyl-3-phenyl-piperidine-4-carbonyl]-4-hydroxy-4-piperidyl]methyl]-7-(4-chlorophenyl)pyrrolo[2,3-d]pyrimidin-4-one] |  |
| 83 nM | CC(C)(C)C(=O)N1CC[C@@H](C(=O)N2CCC(O)(Cn3cnc4c(ccn4-c4ccccc4)c3=O)CC2)[C@H](c2ccccc2)C1 [EXAMPLE 184, 3-[[1-[(3R,4R)-1-(2,2-dimethylpropanoyl)-3-phenyl-piperidine-4-carbonyl]-4-hydroxy-4-piperidyl]methyl]-7-phenyl-pyrrolo[2,3-d]pyrimidin-4-one] |  |
| 88.5 nM | CC(C)(C)CC(=O)N1CC[C@@H](C(=O)N2CCC(O)(Cn3cnc4c(ccn4-c4ccccc4)c3=O)CC2)[C@H](c2ccccc2)C1 [EXAMPLE 187, 3-[[1-[(3R,4R)-1-(3,3-dimethylbutanoyl)-3-phenyl-piperidine-4-carbonyl]-4-hydroxy-4-piperidyl]methyl]-7-phenyl-pyrrolo[2,3-d]pyrimidin-4-one] |  |
